Results reported in ChEMBL document CHEMBL5154747, “Discovery of new carbonic anhydrase IX inhibitors as anticancer agents by toning the hydrophobic and hydrophilic rims of the active site to encounter the dual-tail approach” (Eur J Med Chem, 2022).

How the values were obtained:
Carbonic anhydrase 9 = Carbonic anhydrase 9 (Homo sapiens, UniProt Q16790); assay: Inhibition of recombinant human CA 9 preincubated for 15 mins by phenol red dye based stopped flow CO2 hydration assay
HL-60(TB) = assay: Anticancer activity against human HL-60(TB) cells assessed as cell growth inhibition at 10 uM incubated for 48 hrs by SRB assay relative to control; assay type: functional; conditions: read-out: GI
A549 = assay: Anticancer activity against human A549 cells assessed as cell growth inhibition at 10 uM incubated for 48 hrs by SRB assay relative to control; assay type: functional; conditions: read-out: GI
HOP-92 = assay: Anticancer activity against human HOP-92 cells assessed as cell growth inhibition at 10 uM incubated for 48 hrs by SRB assay relative to control; assay type: functional; conditions: read-out: GI
HCT-116 = assay: Anticancer activity against human HCT-116 cells assessed as cell growth inhibition at 10 uM incubated for 48 hrs by SRB assay relative to control; assay type: functional; conditions: read-out: GI
SF-295 [1] = assay: Anticancer activity against human SF-295 cells assessed as cell growth inhibition at 10 uM incubated for 48 hrs by SRB assay relative to control; assay type: functional; conditions: read-out: GI
SNB-19 = assay: Anticancer activity against human SNB-19 cells assessed as cell growth inhibition at 10 uM incubated for 48 hrs by SRB assay relative to control; assay type: functional; conditions: read-out: GI
Malme-3M [2] = assay: Anticancer activity against human Malme-3M cells assessed as cell growth inhibition at 10 uM incubated for 48 hrs by SRB assay relative to control; assay type: functional; conditions: read-out: GI
SK-MEL-5 [3] = assay: Anticancer activity against human SK-MEL-5 cells assessed as cell growth inhibition at 10 uM incubated for 48 hrs by SRB assay relative to control; assay type: functional; conditions: read-out: GI
UACC-257 = assay: Anticancer activity against human UACC-257 cells assessed as cell growth inhibition at 10 uM incubated for 48 hrs by SRB assay relative to control; assay type: functional; conditions: read-out: GI
IGROV-1 = assay: Anticancer activity against human IGROV-1 cells assessed as cell growth inhibition at 10 uM incubated for 48 hrs by SRB assay relative to control; assay type: functional; conditions: read-out: GI
786-0 [4] = assay: Anticancer activity against human 786-0 cells assessed as cell growth inhibition at 10 uM incubated for 48 hrs by SRB assay relative to control; assay type: functional; conditions: read-out: GI
CAKI-1 = assay: Anticancer activity against human CAKI-1 cells assessed as cell growth inhibition at 10 uM incubated for 48 hrs by SRB assay relative to control; assay type: functional; conditions: read-out: GI
SN12C = assay: Anticancer activity against human SN12C cells assessed as cell growth inhibition at 10 uM incubated for 48 hrs by SRB assay relative to control; assay type: functional; conditions: read-out: GI
TK-10 = assay: Anticancer activity against human TK-10 cells assessed as cell growth inhibition at 10 uM incubated for 48 hrs by SRB assay relative to control; assay type: functional; conditions: read-out: GI
UO-31 = assay: Anticancer activity against human UO-31 cells assessed as cell growth inhibition at 10 uM incubated for 48 hrs by SRB assay relative to control; assay type: functional; conditions: read-out: GI
MCF7 = assay: Anticancer activity against human MCF7 cells assessed as cell growth inhibition at 10 uM incubated for 48 hrs by SRB assay relative to control; assay type: functional; conditions: read-out: GI
MDA-MB-231 [5] = assay: Anticancer activity against human MDA-MB-231 cells assessed as cell growth inhibition at 10 uM incubated for 48 hrs by SRB assay relative to control; assay type: functional; conditions: read-out: GI
Hs-578T = assay: Anticancer activity against human Hs-578T cells assessed as cell growth inhibition at 10 uM incubated for 48 hrs by SRB assay relative to control; assay type: functional; conditions: read-out: GI
OVCAR-4 [6] = assay: Anticancer activity against human OVCAR-4 cells assessed as cell growth inhibition at 10 uM incubated for 48 hrs by SRB assay relative to control; assay type: functional; conditions: read-out: GI
K562 = assay: Anticancer activity against human K562 cells assessed as cell growth inhibition incubated for 48 hrs by SRB assay; assay type: functional
SR = assay: Anticancer activity against human SR cells assessed as cell growth inhibition incubated for 48 hrs by SRB assay; assay type: functional
EKVX = assay: Anticancer activity against human EKVX cells assessed as cell growth inhibition incubated for 48 hrs by SRB assay; assay type: functional
NCI-H522 = assay: Anticancer activity against human NCI-H522 cells assessed as cell growth inhibition incubated for 48 hrs by SRB assay; assay type: functional
HCT-15 = assay: Anticancer activity against human HCT-15 cells assessed as cell growth inhibition incubated for 48 hrs by SRB assay; assay type: functional
KM12 = assay: Anticancer activity against human KM12 cells assessed as cell growth inhibition incubated for 48 hrs by SRB assay; assay type: functional
SF-268 = assay: Anticancer activity against human SF-268 cells assessed as cell growth inhibition incubated for 48 hrs by SRB assay; assay type: functional
SF-295 [7] = assay: Anticancer activity against human SF-295 cells assessed as cell growth inhibition incubated for 48 hrs by SRB assay; assay type: functional
Malme-3M [8] = assay: Anticancer activity against human Malme-3M cells assessed as cell growth inhibition incubated for 48 hrs by SRB assay; assay type: functional
MDA-MB-435 = assay: Anticancer activity against human MDA-MB-435 cells assessed as cell growth inhibition incubated for 48 hrs by SRB assay; assay type: functional
SK-MEL-5 [9] = assay: Anticancer activity against human SK-MEL-5 cells assessed as cell growth inhibition incubated for 48 hrs by SRB assay; assay type: functional
OVCAR-3 = assay: Anticancer activity against human OVCAR-3 cells assessed as cell growth inhibition incubated for 48 hrs by SRB assay; assay type: functional
OVCAR-4 [10] = assay: Anticancer activity against human OVCAR-4 cells assessed as cell growth inhibition incubated for 48 hrs by SRB assay; assay type: functional
NCI/ADR-RES = assay: Anticancer activity against human NCI/ADR-RES cells assessed as cell growth inhibition incubated for 48 hrs by SRB assay; assay type: functional
SK-OV-3 = assay: Anticancer activity against human SK-OV-3 cells assessed as cell growth inhibition incubated for 48 hrs by SRB assay; assay type: functional
786-0 [11] = assay: Anticancer activity against human 786-0 cells assessed as cell growth inhibition incubated for 48 hrs by SRB assay; assay type: functional
ACHN = assay: Anticancer activity against human ACHN cells assessed as cell growth inhibition incubated for 48 hrs by SRB assay; assay type: functional
DU-145 = assay: Anticancer activity against human DU-145 cells assessed as cell growth inhibition incubated for 48 hrs by SRB assay; assay type: functional
MDA-MB-231 [12] = assay: Anticancer activity against human MDA-MB-231 cells assessed as cell growth inhibition incubated for 48 hrs by SRB assay; assay type: functional
T47D = assay: Anticancer activity against human T47D cells assessed as cell growth inhibition incubated for 48 hrs by SRB assay; assay type: functional
[13] = read-out: LC50 (the source's name)

Compound NS(=O)(=O)c1ccc(Nc2nc(N/N=C/c3ccc(C(F)(F)F)cc3)nc(Nc3ccccc3)n2)cc1 has a Ki (Carbonic anhydrase 9) of 0.0297 µM, an inhibition of growth at 10 µM (HL-60(TB)) of 51% and an inhibition of growth at 10 µM (A549) of 72%. For the same compound, the inhibition of growth at 10 µM (HOP-92) was 42%, the inhibition of growth at 10 µM (HCT-116) was 90% and the inhibition of growth at 10 µM (SF-295 [1]) was 95%. It also gave an inhibition of growth at 10 µM (SNB-19) of 66%, an inhibition of growth at 10 µM (Malme-3M [2]) of 77% and an inhibition of growth at 10 µM (SK-MEL-5 [3]) of 65%. The inhibition of growth at 10 µM (UACC-257) was 60%, the inhibition of growth at 10 µM (IGROV-1) was 68% and the inhibition of growth at 10 µM (786-0 [4]) was 103%. For the same compound, the inhibition of growth at 10 µM (CAKI-1) was 66%, the inhibition of growth at 10 µM (SN12C) was 57% and the inhibition of growth at 10 µM (TK-10) was 35%. It also gave an inhibition of growth at 10 µM (UO-31) of 39%, an inhibition of growth at 10 µM (MCF7) of 89% and an inhibition of growth at 10 µM (MDA-MB-231 [5]) of 73%. The inhibition of growth at 10 µM (Hs-578T) was 91%, the inhibition of growth at 10 µM (OVCAR-4 [6]) was 59% and the GI50 (K562) was 3.51 µM. The CC50 (K562; [13]) was over 100 µM, the GI50 (SR) was 3.07 µM and the CC50 (SR; [13]) was over 100 µM. For the same compound, the GI50 (EKVX) was 2.62 µM, the CC50 (EKVX; [13]) was 40.3 µM and the GI50 (NCI-H522) was 2.66 µM. For the same compound, the CC50 (NCI-H522; [13]) was 87.1 µM, the GI50 (HCT-15) was 2.32 µM and the CC50 (HCT-15; [13]) was 52 µM. For the same compound, the GI50 (KM12) was 2.38 µM, the CC50 (KM12; [13]) was 24.8 µM and the GI50 (SF-268) was 3.51 µM. It also gave an LC50 (concentration killing 50% of cells) (SF-268) of over 100 µM, a GI50 (SF-295 [7]) of 1.92 µM and a CC50 (SF-295 [7]; [13]) of 8.63 µM. It also gave a GI50 (Malme-3M [8]) of 1.87 µM, a CC50 (Malme-3M [8]; [13]) of 8.15 µM and a GI50 (MDA-MB-435) of 2.07 µM. The LC50 (MDA-MB-435) was 9.53 µM, the GI50 (SK-MEL-5 [9]) was 1.74 µM and the LC50 (SK-MEL-5 [9]) was 5.82 µM. The GI50 (OVCAR-3) was 3.32 µM, the LC50 (concentration killing 50% of cells) (OVCAR-3) was over 100 µM and the GI50 (OVCAR-4 [10]) was 3.69 µM. For the same compound, the LC50 (concentration killing 50% of cells) (OVCAR-4 [10]) was over 100 µM, the GI50 (NCI/ADR-RES) was 12.3 µM and the CC50 (NCI/ADR-RES; [13]) was over 100 µM. The GI50 (SK-OV-3) was 3.66 µM, the LC50 (SK-OV-3) was over 100 µM and the GI50 (786-0 [11]) was 2.22 µM. The CC50 (786-0 [11]; [13]) was 33.7 µM, the GI50 (ACHN) was 2.68 µM and the CC50 (ACHN; [13]) was 26.5 µM. For the same compound, the GI50 (DU-145) was 3.31 µM, the LC50 (50% lethal concentration) (DU-145) was 36.7 µM and the GI50 (MDA-MB-231 [12]) was 2.31 µM. For the same compound, the LC50 (concentration killing 50% of cells) (MDA-MB-231 [12]) was 33.7 µM, the GI50 (T47D) was 2.48 µM and the LC50 (T47D) was over 100 µM.

NS(=O)(=O)c1ccc(Nc2nc(N/N=C/c3c[nH]c4ccccc34)nc(Nc3ccccc3)n2)cc1 showed a Ki (Carbonic anhydrase 9) of 0.0258 µM, an inhibition of growth at 10 µM (HL-60(TB)) of 65% and an inhibition of growth at 10 µM (A549) of 21%. For the same compound, the inhibition of growth at 10 µM (HOP-92) was 38%, the inhibition of growth at 10 µM (HCT-116) was 84% and the inhibition of growth at 10 µM (SF-295 [1]) was 68%. For the same compound, the inhibition of growth at 10 µM (SNB-19) was 43%, the inhibition of growth at 10 µM (Malme-3M [2]) was 53% and the inhibition of growth at 10 µM (SK-MEL-5 [3]) was 60%. For the same compound, the inhibition of growth at 10 µM (UACC-257) was 36%, the inhibition of growth at 10 µM (IGROV-1) was 66% and the inhibition of growth at 10 µM (786-0 [4]) was 58%. It also gave an inhibition of growth at 10 µM (CAKI-1) of 46%, an inhibition of growth at 10 µM (SN12C) of 59% and an inhibition of growth at 10 µM (TK-10) of 20%. For the same compound, the inhibition of growth at 10 µM (UO-31) was 50%, the inhibition of growth at 10 µM (MCF7) was 81% and the inhibition of growth at 10 µM (MDA-MB-231 [5]) was 51%. For the same compound, the inhibition of growth at 10 µM (Hs-578T) was 57% and the inhibition of growth at 10 µM (OVCAR-4 [6]) was 40%.

COc1ccc(/C=N/Nc2nc(Nc3ccccc3)nc(Nc3ccc(S(N)(=O)=O)cc3)n2)cc1 was tested, and the Ki (Carbonic anhydrase 9) was 0.0994 µM, the inhibition of growth at 10 µM (HL-60(TB)) was 16% and the inhibition of growth at 10 µM (A549) was 12%. For the same compound, the inhibition of growth at 10 µM (HOP-92) was under 10%, the inhibition of growth at 10 µM (HCT-116) was 49% and the inhibition of growth at 10 µM (SF-295 [1]) was 29%. It also gave an inhibition of growth at 10 µM (SNB-19) of 13%, an inhibition of growth at 10 µM (Malme-3M [2]) of 18% and an inhibition of growth at 10 µM (SK-MEL-5 [3]) of 25%. It also gave an inhibition of growth at 10 µM (UACC-257) of under 10%, an inhibition of growth at 10 µM (IGROV-1) of 41% and an inhibition of growth at 10 µM (786-0 [4]) of 26%. For the same compound, the inhibition of growth at 10 µM (CAKI-1) was 24%, the inhibition of growth at 10 µM (SN12C) was 19% and the inhibition of growth at 10 µM (TK-10) was 20%. It also gave an inhibition of growth at 10 µM (UO-31) of 22%, an inhibition of growth at 10 µM (MCF7) of 59% and an inhibition of growth at 10 µM (MDA-MB-231 [5]) of 32%. It also gave an inhibition of growth at 10 µM (Hs-578T) of 41% and an inhibition of growth at 10 µM (OVCAR-4 [6]) of 33%.
